Reference: patent US8686044B2, “Amide derivative, pest control agent containing the amide derivative, and use of the amide derivative” (Mitsui Chemicals Agro, Inc., priority 2008, dated 2014)

How the values were obtained:
Type in all cases: in vivo
Laodelphax striatellus = assay: Pesticidal test against Laodelphax striatellus (rice seedling spray); details: 144 h, concentration 100 ppm, 3-stage larvae, examined after 6 days, 25° C., read-out: pesticidal rate
Procedure: Pesticidal Test against Laodelphax striatellus
2.5 ml of an acetone solution in which a test compound had been prepared at a predetermined concentration was sprayed on rice seedlings, air-dried, and then put into a glass tube having a diameter of 3 cm and a height of 13 cm, having water therein, and 3-stage larvae of Laodelphax striatellus were released and the tube was capped. They were left to stand in a thermostatic chamber at 25° C., and the numbers of the living pests and the dead pests were examined after 6 days. The test was carried out with ten larvae per group in two replicates.

Spodoptera litura = assay: Pesticidal test against Spodoptera litura (cabbage leaf dip); details: foliar, 144 h, 2-stage larvae, examined after 6 days, 25° C., read-out: pesticidal rate; for pest or weed control at 1 ppm: concentration 1 ppm; for pest or weed control at 10 ppm: concentration 10 ppm
Outline: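 Cabbage leaf pieces dipped 30 seconds in compound solution at a predetermined concentration and air-dried, then offered to second-stage larvae, five per group in two replicates. Held at 25° C. Living and dead larvae counted after 6 days.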

Plutella xylostella = assay: Pesticidal test against Plutella xylostella (cabbage leaf dip); details: foliar, 144 h, 2-stage larvae, examined after 6 days, 25° C., read-out: pesticidal rate; for pest or weed control at 1 ppm: concentration 1 ppm; for pest or weed control at 10 ppm: concentration 10 ppm
Outline: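 Cabbage leaf pieces dipped 30 s in test solution at a predetermined concentration, air-dried, then offered to 2nd-instar larvae, five per group in duplicate. Held at 25° C; living and dead larvae counted after 6 days.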

O=C(Nc1cccc(C(=O)Nc2c(Br)cc(C(F)(C(F)(F)F)C(F)(F)F)cc2OC(F)(F)F)c1F)c1ccccc1 [6-5907]
≥ 70%: pest or weed control at 100 ppm (Laodelphax striatellus) | pest or weed control at 1 ppm (Spodoptera litura) | pest or weed control at 1 ppm (Plutella xylostella)

O=C(Nc1cccc(C(=O)Nc2c(Br)cc(C(F)(C(F)(F)F)C(F)(F)F)cc2OC(F)(F)F)c1F)c1cccnc1Cl [6-5908, N-(3-(2-bromo-4-(perfluoropropan-2-yl)-6-(trifluoromethoxy)phenylcarbamoyl)-2-fluorophenyl)-2-chloronicotinamide]
≥ 70%: pest or weed control at 100 ppm (Laodelphax striatellus) | pest or weed control at 1 ppm (Spodoptera litura) | pest or weed control at 1 ppm (Plutella xylostella)

N#Cc1ccc(C(=O)Nc2cccc(C(=O)Nc3c(Br)cc(C(F)(C(F)(F)F)C(F)(F)F)cc3OC(F)(F)F)c2F)cc1 [6-5909]
≥ 70%: pest or weed control at 100 ppm (Laodelphax striatellus) | pest or weed control at 1 ppm (Spodoptera litura) | pest or weed control at 1 ppm (Plutella xylostella)

O=C(Nc1cccc(C(=O)Nc2c(Br)cc(C(F)(C(F)(F)F)C(F)(F)F)cc2C(F)(F)C(F)(F)F)c1F)c1ccccc1 [6-5910]
≥ 70%: pest or weed control at 100 ppm (Laodelphax striatellus) | pest or weed control at 1 ppm (Spodoptera litura) | pest or weed control at 1 ppm (Plutella xylostella)

N#Cc1ccc(C(=O)Nc2cccc(C(=O)Nc3c(Br)cc(C(F)(C(F)(F)F)C(F)(F)F)cc3C(F)(F)C(F)(F)F)c2F)cc1 [6-5911, N-(2-bromo-6-(perfluoroethyl)-4-(perfluoropropan-2-yl)phenyl)-3-(4-cyanobenzamide)-2-fluorobenzamide]
≥ 70%: pest or weed control at 100 ppm (Laodelphax striatellus) | pest or weed control at 1 ppm (Spodoptera litura) | pest or weed control at 1 ppm (Plutella xylostella)

O=C(Nc1c(Br)cc(C(F)(F)C(F)(F)F)cc1C(F)(F)F)c1cccc(NC(=O)c2cccnc2Cl)c1 [6-5914]
≥ 70%: pest or weed control at 100 ppm (Laodelphax striatellus) | pest or weed control at 10 ppm (Spodoptera litura) | pest or weed control at 10 ppm (Plutella xylostella)

CN(C(=O)c1c(F)cccc1F)c1cccc(C(=O)Nc2c(Br)cc(C(F)(C(F)(F)F)C(F)(F)C(F)(F)F)cc2Br)c1 (stereo not drawn) [7-47]
≥ 70%: pest or weed control at 100 ppm (Laodelphax striatellus) | pest or weed control at 1 ppm (Spodoptera litura) | pest or weed control at 1 ppm (Plutella xylostella)

CN(C(=O)c1cccc([N+](=O)[O-])c1)c1cccc(C(=O)Nc2c(Br)cc(C(F)(C(F)(F)F)C(F)(F)F)cc2C(F)(F)F)c1 [7-285]
≥ 70%: pest or weed control at 100 ppm (Laodelphax striatellus) | pest or weed control at 1 ppm (Spodoptera litura) | pest or weed control at 10 ppm (Plutella xylostella)

CN(C(=O)c1ccc([N+](=O)[O-])cc1)c1cccc(C(=O)Nc2c(Br)cc(C(F)(C(F)(F)F)C(F)(F)F)cc2C(F)(F)F)c1 [7-286]
≥ 70%: pest or weed control at 100 ppm (Laodelphax striatellus) | pest or weed control at 1 ppm (Spodoptera litura) | pest or weed control at 1 ppm (Plutella xylostella)

CN(C(=O)c1cccc(C#N)c1)c1cccc(C(=O)Nc2c(Br)cc(C(F)(C(F)(F)F)C(F)(F)F)cc2C(F)(F)F)c1 [7-288]
≥ 70%: pest or weed control at 100 ppm (Laodelphax striatellus) | pest or weed control at 1 ppm (Spodoptera litura) | pest or weed control at 1 ppm (Plutella xylostella)

CN(C(=O)c1ccc(C#N)cc1)c1cccc(C(=O)Nc2c(Br)cc(C(F)(C(F)(F)F)C(F)(F)F)cc2C(F)(F)F)c1 [7-289]
≥ 70%: pest or weed control at 100 ppm (Laodelphax striatellus) | pest or weed control at 1 ppm (Spodoptera litura) | pest or weed control at 1 ppm (Plutella xylostella)

CN(C(=O)c1ccc(C#N)cc1Cl)c1cccc(C(=O)Nc2c(Br)cc(C(F)(C(F)(F)F)C(F)(F)F)cc2C(F)(F)F)c1 [7-301]
≥ 70%: pest or weed control at 100 ppm (Laodelphax striatellus) | pest or weed control at 1 ppm (Spodoptera litura) | pest or weed control at 1 ppm (Plutella xylostella)

CN(C(=O)c1cccnc1F)c1cccc(C(=O)Nc2c(Br)cc(C(F)(C(F)(F)F)C(F)(F)F)cc2C(F)(F)F)c1 [7-303]
≥ 70%: pest or weed control at 100 ppm (Laodelphax striatellus) | pest or weed control at 1 ppm (Spodoptera litura) | pest or weed control at 1 ppm (Plutella xylostella)

CN(C(=O)c1cccnc1Cl)c1cccc(C(=O)Nc2c(Br)cc(C(F)(C(F)(F)F)C(F)(F)F)cc2C(F)(F)F)c1 [7-304]
≥ 70%: pest or weed control at 100 ppm (Laodelphax striatellus) | pest or weed control at 1 ppm (Spodoptera litura) | pest or weed control at 1 ppm (Plutella xylostella)

CN(C(=O)c1ccc(Cl)nc1)c1cccc(C(=O)Nc2c(Br)cc(C(F)(C(F)(F)F)C(F)(F)F)cc2C(F)(F)F)c1 [7-311]
≥ 70%: pest or weed control at 100 ppm (Laodelphax striatellus) | pest or weed control at 1 ppm (Spodoptera litura) | pest or weed control at 1 ppm (Plutella xylostella)

CN(C(=O)c1ccc(C#N)nc1)c1cccc(C(=O)Nc2c(Br)cc(C(F)(C(F)(F)F)C(F)(F)F)cc2C(F)(F)F)c1 [7-316]
≥ 70%: pest or weed control at 100 ppm (Laodelphax striatellus) | pest or weed control at 10 ppm (Spodoptera litura) | pest or weed control at 10 ppm (Plutella xylostella)

CN(C(=O)c1cccc(F)c1)c1cccc(C(=O)Nc2c(I)cc(C(F)(C(F)(F)F)C(F)(F)F)cc2C(F)(F)F)c1 [7-426]
≥ 70%: pest or weed control at 100 ppm (Laodelphax striatellus) | pest or weed control at 1 ppm (Spodoptera litura) | pest or weed control at 1 ppm (Plutella xylostella)

CN(C(=O)c1ccc(F)cc1)c1cccc(C(=O)Nc2c(I)cc(C(F)(C(F)(F)F)C(F)(F)F)cc2C(F)(F)F)c1 [7-427]
≥ 70%: pest or weed control at 100 ppm (Laodelphax striatellus) | pest or weed control at 1 ppm (Spodoptera litura) | pest or weed control at 1 ppm (Plutella xylostella)

CN(C(=O)c1ccc(C#N)cc1)c1cccc(C(=O)Nc2c(I)cc(C(F)(C(F)(F)F)C(F)(F)F)cc2C(F)(F)F)c1 [7-445]
≥ 70%: pest or weed control at 100 ppm (Laodelphax striatellus) | pest or weed control at 1 ppm (Spodoptera litura) | pest or weed control at 1 ppm (Plutella xylostella)

CN(C(=O)c1cccnc1Cl)c1cccc(C(=O)Nc2c(I)cc(C(F)(C(F)(F)F)C(F)(F)F)cc2C(F)(F)F)c1 [7-460]
≥ 70%: pest or weed control at 100 ppm (Laodelphax striatellus) | pest or weed control at 1 ppm (Spodoptera litura) | pest or weed control at 1 ppm (Plutella xylostella)

CN(C(=O)c1ccc(Cl)nc1)c1cccc(C(=O)Nc2c(I)cc(C(F)(C(F)(F)F)C(F)(F)F)cc2C(F)(F)F)c1 [7-467]
≥ 70%: pest or weed control at 100 ppm (Laodelphax striatellus) | pest or weed control at 1 ppm (Spodoptera litura) | pest or weed control at 1 ppm (Plutella xylostella)

CN(C(=O)c1ccc(C#N)cc1)c1cccc(C(=O)Nc2c(C(F)(F)F)cc(C(F)(C(F)(F)F)C(F)(F)F)cc2C(F)(F)F)c1 [7-825]
≥ 70%: pest or weed control at 100 ppm (Laodelphax striatellus) | pest or weed control at 1 ppm (Spodoptera litura) | pest or weed control at 10 ppm (Plutella xylostella)

CN(C(=O)c1cccnc1Cl)c1cccc(C(=O)Nc2c(C(F)(F)F)cc(C(F)(C(F)(F)F)C(F)(F)F)cc2C(F)(F)F)c1 [7-840]
≥ 70%: pest or weed control at 100 ppm (Laodelphax striatellus) | pest or weed control at 1 ppm (Spodoptera litura) | pest or weed control at 1 ppm (Plutella xylostella)

CN(C(=O)c1ccccc1)c1cccc(C(=O)Nc2c(Cl)cc(C(F)(C(F)(F)F)C(F)(F)F)cc2Cl)c1F [7-948]
≥ 70%: pest or weed control at 100 ppm (Laodelphax striatellus) | pest or weed control at 1 ppm (Spodoptera litura) | pest or weed control at 1 ppm (Plutella xylostella)

CN(C(=O)c1cccnc1Cl)c1cccc(C(=O)Nc2c(Cl)cc(C(F)(C(F)(F)F)C(F)(F)F)cc2Cl)c1F [7-984]
≥ 70%: pest or weed control at 100 ppm (Laodelphax striatellus) | pest or weed control at 1 ppm (Spodoptera litura) | pest or weed control at 1 ppm (Plutella xylostella)

CN(C(=O)c1cccnc1Cl)c1cccc(C(=O)Nc2c(Br)cc(C(F)(C(F)(F)F)C(F)(F)F)cc2Br)c1F [7-1140]
≥ 70%: pest or weed control at 100 ppm (Laodelphax striatellus) | pest or weed control at 1 ppm (Spodoptera litura) | pest or weed control at 1 ppm (Plutella xylostella)

CN(C(=O)c1ccc(Cl)nc1)c1cccc(C(=O)Nc2c(Br)cc(C(F)(C(F)(F)F)C(F)(F)F)cc2Br)c1F [7-1147]
≥ 70%: pest or weed control at 100 ppm (Laodelphax striatellus) | pest or weed control at 1 ppm (Spodoptera litura) | pest or weed control at 1 ppm (Plutella xylostella)

CN(C(=O)c1ccccc1)c1cccc(C(=O)Nc2c(Br)cc(C(F)(C(F)(F)F)C(F)(F)C(F)(F)F)cc2Br)c1F (stereo not drawn) [7-1182, N-(2,6-dibromo-4-(perfluorobutan-2-yl)phenyl)-2-fluoro-3-(N-methylbenzamide)benzamide]
≥ 70%: pest or weed control at 100 ppm (Laodelphax striatellus) | pest or weed control at 1 ppm (Spodoptera litura) | pest or weed control at 1 ppm (Plutella xylostella)

CN(C(=O)c1ccccc1F)c1cccc(C(=O)Nc2c(Br)cc(C(F)(C(F)(F)F)C(F)(F)C(F)(F)F)cc2Br)c1F (stereo not drawn) [7-1183]
≥ 70%: pest or weed control at 100 ppm (Laodelphax striatellus) | pest or weed control at 1 ppm (Spodoptera litura) | pest or weed control at 1 ppm (Plutella xylostella)

CN(C(=O)c1cccc(F)c1)c1cccc(C(=O)Nc2c(Br)cc(C(F)(C(F)(F)F)C(F)(F)C(F)(F)F)cc2Br)c1F (stereo not drawn) [7-1184]
≥ 70%: pest or weed control at 100 ppm (Laodelphax striatellus) | pest or weed control at 1 ppm (Spodoptera litura) | pest or weed control at 1 ppm (Plutella xylostella)

CN(C(=O)c1ccc(F)cc1)c1cccc(C(=O)Nc2c(Br)cc(C(F)(C(F)(F)F)C(F)(F)C(F)(F)F)cc2Br)c1F (stereo not drawn) [7-1185]
≥ 70%: pest or weed control at 100 ppm (Laodelphax striatellus) | pest or weed control at 1 ppm (Spodoptera litura) | pest or weed control at 1 ppm (Plutella xylostella)

CN(C(=O)c1ccc(C#N)cc1)c1cccc(C(=O)Nc2c(Br)cc(C(F)(C(F)(F)F)C(F)(F)C(F)(F)F)cc2Br)c1F (stereo not drawn) [7-1203]
≥ 70%: pest or weed control at 100 ppm (Laodelphax striatellus) | pest or weed control at 1 ppm (Spodoptera litura) | pest or weed control at 1 ppm (Plutella xylostella)
